The source of these data is article PMC8632500, “Identification of Conserved and Divergent Strigolactone Receptors in Sugarcane Reveals a Key Residue Crucial for Plant Branching Control” (Frontiers in Plant Science, 2021).

What all share (assay): yeast two-hybrid, hormone-induced D14-MAX2 interaction
What all share (assay type): cell-based

For test [1], the target named is T1, SsD14a (with SsMAX2) (Saccharum spontaneum, UniProt Z9T3V1O2D3).
T1 construct: full-length CDS as GAL4-BD fusion (pGBKT7), SsMAX2 as GAL4-AD fusion (pGADT7), yeast AH109; 7F5W is apo SsD14a lacking residues 1-49; with F-box protein MAX2 homolog (D3)
T1 sequence (Z9T3V1O2D3 1-316): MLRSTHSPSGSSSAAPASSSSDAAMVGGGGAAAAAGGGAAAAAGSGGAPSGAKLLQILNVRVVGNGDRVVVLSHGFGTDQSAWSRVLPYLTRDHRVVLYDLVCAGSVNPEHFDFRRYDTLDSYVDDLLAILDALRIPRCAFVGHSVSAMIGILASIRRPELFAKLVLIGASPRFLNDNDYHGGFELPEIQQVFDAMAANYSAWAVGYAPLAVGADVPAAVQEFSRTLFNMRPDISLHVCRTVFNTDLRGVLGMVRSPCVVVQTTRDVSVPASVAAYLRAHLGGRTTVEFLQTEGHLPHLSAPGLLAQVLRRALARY
The note with it: 5 uM rac-GR24 versus DMSO; 30 °C, 4 days; partner SsMAX2.

For test [2], the target named is T2, SsD14b (with SsMAX2) (Saccharum spontaneum, UniProt Z9BCY6HYO0).
T2 construct: full-length CDS as GAL4-BD fusion (pGBKT7), SsMAX2 as GAL4-AD fusion (pGADT7), yeast AH109; with F-box protein MAX2 homolog (D3)
T2 sequence (Z9BCY6HYO0 1-310): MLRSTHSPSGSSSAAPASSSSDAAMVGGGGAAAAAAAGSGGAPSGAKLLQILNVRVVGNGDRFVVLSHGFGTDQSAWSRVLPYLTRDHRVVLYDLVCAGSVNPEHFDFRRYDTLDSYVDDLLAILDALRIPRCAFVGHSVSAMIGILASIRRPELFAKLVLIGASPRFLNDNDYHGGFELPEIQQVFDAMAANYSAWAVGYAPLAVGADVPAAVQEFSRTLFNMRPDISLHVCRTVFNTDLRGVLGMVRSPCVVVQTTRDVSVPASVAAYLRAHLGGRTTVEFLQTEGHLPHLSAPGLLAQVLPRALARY
The note with it: 5 uM rac-GR24 versus DMSO; 30 °C, 4 days; partner SsMAX2.

Test [3] concerns the target T3, AtD14 (with SsMAX2) (Arabidopsis thaliana, UniProt Q9SQR3, R262P).
T3 construct: gene D14; GAL4-BD fusion, with Saccharum spontaneum MAX2 as GAL4-AD fusion, yeast AH109; with F-box protein MAX2 homolog (D3), Saccharum spontaneum
T3 sequence (Q9SQR3 1-267 R262P): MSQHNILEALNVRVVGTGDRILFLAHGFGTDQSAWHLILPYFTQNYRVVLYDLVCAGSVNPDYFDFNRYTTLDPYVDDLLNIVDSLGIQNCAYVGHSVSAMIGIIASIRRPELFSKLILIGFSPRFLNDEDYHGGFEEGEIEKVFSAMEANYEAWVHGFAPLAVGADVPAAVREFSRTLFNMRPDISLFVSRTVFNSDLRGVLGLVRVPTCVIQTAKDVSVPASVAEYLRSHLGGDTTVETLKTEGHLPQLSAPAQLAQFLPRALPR
As to conditions: 5 uM rac-GR24 versus DMSO; 30 °C, 4 days; partner SsMAX2.

Test [4] concerns the target T4, OsD14ΔN (with SsMAX2) (Oryza sativa, UniProt Q10QA5).
T4 construct: gene D14; N-terminally truncated (printed OsD14ΔN53; R261/R312 offset implies 51 residues removed), GAL4-BD fusion, with Saccharum spontaneum MAX2 as GAL4-AD fusion, yeast AH109; with F-box protein MAX2 homolog (D3), Saccharum spontaneum
T4 sequence (Q10QA5 54-318): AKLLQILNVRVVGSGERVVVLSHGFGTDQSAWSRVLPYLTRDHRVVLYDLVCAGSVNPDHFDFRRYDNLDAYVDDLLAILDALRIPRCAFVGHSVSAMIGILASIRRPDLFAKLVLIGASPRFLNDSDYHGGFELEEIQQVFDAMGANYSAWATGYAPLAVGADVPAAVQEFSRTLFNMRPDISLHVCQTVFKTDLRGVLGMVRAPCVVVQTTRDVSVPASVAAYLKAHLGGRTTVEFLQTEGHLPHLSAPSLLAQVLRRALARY
The note with it: 5 uM rac-GR24 versus DMSO; 30 °C, 4 days; partner SsMAX2.

For test [5], the target named is T5, AtD14 (with SsMAX2) (Arabidopsis thaliana, UniProt Q9SQR3).
T5 construct: gene D14; GAL4-BD fusion, with Saccharum spontaneum MAX2 as GAL4-AD fusion, yeast AH109; with F-box protein MAX2 homolog (D3), Saccharum spontaneum
T5 sequence (Q9SQR3 1-267): T3 sequence (Q9SQR3 1-267 R262P) with P262R
The note with it: 5 uM rac-GR24 versus DMSO; 30 °C, 4 days; partner SsMAX2.

Test [6] deals with T6, OsD14ΔN (with SsMAX2) (Oryza sativa, UniProt Q10QA5, R312P).
T6 construct: gene D14; N-terminally truncated (printed OsD14ΔN53; R261/R312 offset implies 51 residues removed), GAL4-BD fusion, with Saccharum spontaneum MAX2 as GAL4-AD fusion, yeast AH109; with F-box protein MAX2 homolog (D3), Saccharum spontaneum
T6 sequence (Q10QA5 54-318 R312P): T4 sequence (Q10QA5 54-318) with R259P
As to conditions: 5 uM rac-GR24 versus DMSO; 30 °C, 4 days; partner SsMAX2; R312P in full-length count.

Positions count from the first letter of the chain named.

Turning to `CC1=CC(OC=C2C(=O)OC3c4ccccc4CC23)OC1=O` (racemic) [rac-GR24], the “yeast two-hybrid, hormone-induced D14-MAX2 interaction” value was “SL induced both SsD14a and SsD14b to interact with SsMAX2 in yeast” in test [1]; “SL induced both SsD14a and SsD14b to interact with SsMAX2 in yeast” in test [2]; “AtD14R262P and OsD14ΔNR261P, like wild-type proteins, still have strong hormone-dependent interactions with SsMAX2” in test [3]; “like wild-type proteins, still have strong hormone-dependent interactions with SsMAX2” in test [4]; “SsMAX2 interacted with AtD14 in an SL-dependent manner” in test [5]; “AtD14R262P and OsD14ΔNR261P, like wild-type proteins, still have strong hormone-dependent interactions with SsMAX2” in test [6].
